Converted amounts (≈) assume the structure as drawn. Square brackets hold non-standard residues; d marks the D form. Peptide text beside a SMILES is read from it. Hyp = O=C(O)[C@@H]1C[C@@H](O)CN1

For this experiment, the system named is IL-4 receptor (receptor/Fc fusion protein). As to the kind of experiment: Specific inhibition of IL-4 binding in cell-free binding assays (IC50 table). To be noted: cell-free IL-4 binding assay, biotinylated ligand 100 ng/ml, PBSA with 5% DMSO; table does not say whether huIL-4 or muIL-4 test. The source says: Specific inhibition of IL-4 Binding in Cell-free Binding Assays.
EP 488 170 A1, which is incorporated herein by reference, discloses cell-free binding tests. For carrying them out, recombinant chimeric proteins were used which comprise the extracellular region of what are normally membrane-located receptors on to whose carboxyl terminus has been fused the Fc region of a heavy immunoglobulin chain composed of hinge, CH2 and CH3 domains. These so-called receptor/Fc fusion proteins can be bound, while retaining the specific receptor binding activity, to solid phases which have previously been coated, for example, with monoclonal antibodies directed against the Fc moiety. For this example, Nunc® type B ELISA plates were used as the solid phase. Receptor/Fc fusion proteins, dissolved in PBS containing 10 mg/ml BSA (PBSA), were bonded to these pre-treated plates (huIL-4R/Fc: 500 ng/ml; muIL-4R/Fc: 250 ng/ml; huIL-lR/Fc: 125 ng/ml; at room temperature for 1 h). […] The plates were incubated at room temperature for 1 h in PBSA containing 5% DMSO. After having been washed, the plates were incubated at room temperature for 20 min with streptavidin/peroxidase (Amersham, 1:2000 in PBSA). The bound peroxidase was detected after the plates had been washed repeatedly in a solution of tetramethylbenzidine substrate (Behringwerke). The extinction at 450 nm, which directly reflects the quantity of the biotinylated ligand bound to the receptor, was measured after the plates had been incubated for 30 min. For FIGS. 1-3, the measured extinction signal was plotted against the concentration of the competing agent with the 100% value being the extinction which was measured in the absence of any competing agent.
`CC(C)[C@@H]1NC(=O)[C@H](Cc2ccc(O)cc2)NC(=O)[C@@H](C)NC(=O)[C@H](C(C)C)NC(=O)[C@H](Cc2ccc(O)cc2)NC(=O)[C@H](C)NC1=O` [cyclo(Tyr--Val--Ala--Tyr--Val--(D)--Ala), cyclo(Tyr-Val-Ala-Tyr-Val-(D)-Ala)] (cyclo(AYV[dA]YV)) had an IC50 of 8.3 µg/mL (≈ 12.4 µM).
The same measure for `CC(C)[C@@H]1NC(=O)[C@H](Cc2ccc(O)cc2)NC(=O)[C@@H](C)NC(=O)[C@H](C(C)C)NC(=O)[C@H](Cc2ccc(O)cc2)NC(=O)[C@H](CCCNC(=N)N)NC1=O` [cyclo(Tyr--Val--Arg--Tyr--Val--(D)--Ala), cyclo(Tyr-Val-Arg-Tyr-Val-(D)-Ala)] (cyclo(RYV[dA]YV)): 96.6 µg/mL (≈ 128 µM); for `CC(C)[C@@H]1NC(=O)[C@H](Cc2ccc(O)cc2)NC(=O)[C@@H]2C[C@@H](O)CN2C(=O)[C@H](C(C)C)NC(=O)[C@H](Cc2ccc(O)cc2)NC(=O)[C@@H](C)NC1=O` [cyclo(Tyr--Val--Hyp--Tyr--Val--(D)--Ala), cyclo(Tyr-Val-Hyp-Tyr-Val-(D)-Ala)] (cyclo([Hyp]YV[dA]YV)): 17.4 µg/mL (≈ 24.5 µM).
Next, `CC[C@H](C)[C@@H]1NC(=O)[C@H](C(C)C)NC(=O)[C@H](Cc2ccc(O)cc2)NC(=O)[C@@H](C)NC(=O)[C@H](C(C)C)NC(=O)[C@H](Cc2ccc(O)cc2)NC1=O` [cyclo(Tyr--Val--Ile--Tyr--Val--(D)--Ala), cyclo(Tyr-Val-Ile-Tyr-Val-(D)-Ala)] (cyclo(IYV[dA]YV)): 62.5 µg/mL (≈ 88.2 µM); `CC(C)C[C@@H]1NC(=O)[C@H](C(C)C)NC(=O)[C@H](Cc2ccc(O)cc2)NC(=O)[C@@H](C)NC(=O)[C@H](C(C)C)NC(=O)[C@H](Cc2ccc(O)cc2)NC1=O` [cyclo(Tyr--Val--Leu--Tyr--Val--(D)--Ala), cyclo(Tyr-Val-Leu-Tyr-Val-(D)-Ala)] (cyclo(LYV[dA]YV)): 41.3 µg/mL (≈ 58.3 µM); `CC(C)[C@@H]1NC(=O)[C@H](Cc2ccc(O)cc2)NC(=O)[C@@H](C)NC(=O)[C@H](C(C)C)NC(=O)[C@H](Cc2ccc(O)cc2)NC(=O)[C@H]([C@@H](C)O)NC1=O` [cyclo(Tyr--Val--Thr--Tyr--Val--(D)--Ala), cyclo(Tyr-Val-Thr-Tyr-Val-(D)-Ala)] (cyclo(TYV[dA]YV)): 92.0 µg/mL (≈ 132 µM).
Next, `CC(C)[C@@H]1NC(=O)[C@H](C)NC(=O)[C@H](Cc2ccc(O)cc2)NC(=O)[C@H](C(C)C)NC(=O)[C@@H](C)NC(=O)[C@H](Cc2ccc(O)cc2)NC1=O` [cyclo(Val--Tyr--Ala--Val--Tyr--(D)--Ala), cyclo(Val-Tyr-Ala-Val-Tyr-(D)-Ala)] (cyclo(AVY[dA]VY)): 16.7 µg/mL (≈ 25 µM).

Values taken from patent US5869447A, “Cyclohexapeptides and their mixtures, a process for preparing them, and their use” (Hoechst Aktiengesellschaft, priority 1994, dated 1999).
